Experimental findings from patent publication US12653815B2, “Luminally-acting N-(piperidin-4-yl)benzamide derivatives” (Takeda Pharmaceutical Company Limited, priority 2020, dated 2026) are described below.

SMILES strings stand for the structures.

For orientation: EC50 means the midpoint of the concentration-response curve.

T1 sequence (Q13639 whole entry): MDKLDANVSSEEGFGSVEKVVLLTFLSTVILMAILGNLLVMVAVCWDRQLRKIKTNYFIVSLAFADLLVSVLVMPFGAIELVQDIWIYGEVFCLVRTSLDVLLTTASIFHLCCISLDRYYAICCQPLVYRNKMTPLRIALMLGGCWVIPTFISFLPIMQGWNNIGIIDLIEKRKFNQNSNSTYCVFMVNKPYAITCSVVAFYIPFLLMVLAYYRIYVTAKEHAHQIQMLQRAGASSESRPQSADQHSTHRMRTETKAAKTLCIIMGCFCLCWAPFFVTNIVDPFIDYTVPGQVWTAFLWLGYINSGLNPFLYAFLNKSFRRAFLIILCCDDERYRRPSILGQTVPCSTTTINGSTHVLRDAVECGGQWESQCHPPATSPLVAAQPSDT

The test addresses T1, human 5-HT4(b) receptor (Homo sapiens, UniProt Q13639).
T1 construct: overexpressing the full-length human 5-HT4(b) receptor with an N-terminal FLAG tag; FLAG (N); host or cells: CHO-K1
Nature of the test: 5-HT4(b) agonist assay (cAMP accumulation). The class given is cell-based. The note with it: CHO-K1 cells overexpressing full-length human 5-HT4(b) receptor; cAMP accumulation after 30 minutes at room temperature; 1 μM 5-HT as 100% activity. Here is the method: One may determine the activity of the compounds of Formula 1 using a variety of methods, including in vitro and in vivo methods. The ability of the example compounds to activate the 5-HT4(b) receptor may be determined using the following assay.
Chinese hamster ovary (CHO-K1) cells overexpressing the full-length human 5-HT4(b) receptor with an N-terminal FLAG tag (Multispan Inc, Hayward, CA) are cultured per the manufacturer's protocol in 1:1 DMEM/F12 (Thermo Fisher, Waltham, MA) with 10% fetal bovine serum (GE Healthcare, Pittsburgh, PA) and 10 μg/mL puromycin (Thermo Fisher, Waltham, MA), and stored in frozen aliquots to be used as assay ready cells. On the day of the assay, cells are removed from frozen storage, washed two times in 1× Kreb's Ringer Buffer (Zenbio, Research Triangle Park, NC), and re-suspended to a concentration of 4×10^6 cells/mL in 1× Kreb's Ringer Buffer. Test compound (50 nL) in 100% DMSO is acoustically dispensed in low volume, white, 384-well polypropylene plates (Corning, Tewksbury, MA), followed by the addition of 4×10^4 cells per well in a total volume of 10 μL. Cells are incubated with test compound for 30 minutes at room temperature in the dark, and cAMP accumulation is measured using the Cisbio HiRange cAMP assay kit (Bedford, MA) per the manufacturer's protocol. Anti-cAMP antibody and d2-cAMP tracer reagents diluted in lysis/detection buffer are incubated in the dark for 1 hour, and results are measured on a Pherastar plate reader (BMG Labtech, Ortenberg, Germany). Data are normalized using 1 μM 5-HT (Sigma Aldrich, St. Louis, MO) as 100% activity, and DMSO alone as 0% activity.
The ability of the example compounds to activate the 5-HT4(b) receptor was evaluated using the assay described in the Biological Activity section. Table 1, below, lists EC50 from the 5-HT4(b) agonist assay for each of the example compounds, where smaller EC50 values represent higher potency.
A general note: Cyclic AMP is a second messenger, typically raised through Gs and lowered through Gi signalling.
The compound `CO[C@H]1CN(CCCCCC(=O)NCCCCCCCC(=O)NC[C@H](O)[C@@H](O)[C@H](O)[C@H](O)CO)CC[C@H]1NC(=O)c1cc(Cl)c(N)c2c1OCC2` [Example 44, 4-amino-5-chloro-N-((3S,4R)-3-methoxy-1-(6-oxo-6-((8-oxo-8-(((2S,3R,4R,5R)-2,3,4,5,6-pentahydroxyhexyl)amino)octyl)amino)hexyl)piperidin-4-yl)-2,3-dihydrobenzofuran-7-carboxamide] showed an EC50 of 3.1 nM. The same measure for `COc1cc(N)c(Cl)cc1C(=O)N[C@@H]1CCN(CCCCCC(=O)N(C)[C@@H]2CCCN(CCCCCCCC(=O)NC[C@H](O)[C@@H](O)[C@H](O)[C@H](O)CO)C2)C[C@@H]1OC` [Example 14, 4-amino-5-chloro-2-methoxy-N-((3S,4R)-3-methoxy-1-(6-(methyl((R)-1-(8-oxo-8-(((2S,3R,4R,5R)-2,3,4,5,6-pentahydroxyhexyl)amino)octyl)piperidin-3-yl)amino)-6-oxohexyl)piperidin-4-yl)benzamide]: 16.8 nM; for `Nc1c(Cl)cc(C(=O)NC2CCN(CCCCCC(=O)NC3CCN(CCCCCCCC(=O)NC[C@H](O)[C@@H](O)[C@H](O)[C@H](O)CO)CC3)CC2)c2c1CCO2` [Example 30, 4-amino-5-chloro-N-(1-(6-oxo-6-((1-(8-oxo-8-(((2S,3R,4R,5R)-2,3,4,5,6-pentahydroxyhexyl)amino)octyl)piperidin-4-yl)amino)hexyl)piperidin-4-yl)-2,3-dihydrobenzofuran-7-carboxamide]: 3.7 nM.

`Nc1c(Cl)cc(C(=O)NC2CCN(CCCCCC(=O)NCCCC(=O)NC[C@H](O)[C@@H](O)[C@H](O)[C@H](O)CO)CC2)c2c1CCO2` [Example 34, 4-amino-5-chloro-N-(1-(6-oxo-6-((4-oxo-4-(((2S,3R,4R,5R)-2,3,4,5,6-pentahydroxyhexyl)amino)butyl)amino)hexyl)piperidin-4-yl)-2,3-dihydrobenzofuran-7-carboxamide] came in with an EC50 of 15.3 nM. `Nc1c(Cl)cc(C(=O)NCC2CCN(CC3CCN(CCCCCCCCCCC(=O)NC[C@H](O)[C@@H](O)[C@H](O)[C@H](O)CO)CC3)CC2)c2c1CCO2` [Example 36, 4-amino-5-chloro-N-((1-((1-(11-oxo-11-(((2S,3R,4R,5R)-2,3,4,5,6-pentahydroxyhexyl)amino)undecyl)piperidin-4-yl)methyl)piperidin-4-yl)methyl)-2,3-dihydrobenzofuran-7-carboxamide] registered an EC50 of 2.5 nM. In the case of `CO[C@H]1CN(CC2CCN(C(=O)CCCCCC(=O)NC[C@H](O)[C@@H](O)[C@H](O)[C@H](O)CO)CC2)CC[C@H]1NC(=O)c1cc(Cl)c(N)c2c1OCC2` [Example 42, 4-amino-5-chloro-N-((3S,4R)-3-methoxy-1-((1-(7-oxo-7-(((2S,3R,4R,5R)-2,3,4,5,6-pentahydroxyhexyl)amino)heptanoyl)piperidin-4-yl)methyl)piperidin-4-yl)-2,3-dihydrobenzofuran-7-carboxamide] it was 1.4 nM; in that of `Nc1c(Cl)cc(C(=O)NC2CCN(CCCCCC(=O)NCCCCCCCC(=O)NC[C@H](O)[C@@H](O)[C@H](O)[C@H](O)CO)CC2)c2c1CCO2` [Example 32, 4-amino-5-chloro-N-(1-(6-oxo-6-((8-oxo-8-(((2S,3R,4R,5R)-2,3,4,5,6-pentahydroxyhexyl)amino)octyl)amino)hexyl)piperidin-4-yl)-2,3-dihydrobenzofuran-7-carboxamide], 23 nM; in that of `COc1cc(N)c(Cl)cc1C(=O)N[C@@H]1CCN(CCCCCC(=O)N(C)[C@@H]2CCCN(CCCCCC(=O)NC[C@H](O)[C@@H](O)[C@H](O)[C@H](O)CO)C2)C[C@@H]1OC` [Example 15, 4-amino-5-chloro-2-methoxy-N-((3S,4R)-3-methoxy-1-(6-(methyl((R)-1-(6-oxo-6-(((2S,3R,4R,5R)-2,3,4,5,6-pentahydroxyhexyl)amino)hexyl)piperidin-3-yl)amino)-6-oxohexyl)piperidin-4-yl)benzamide], 31 nM.

`COc1cc(N)c(Cl)cc1C(=O)N[C@@H]1CCN(CCCCCC(=O)NC2CCN(CCCCCCCC(=O)NC[C@H](O)[C@@H](O)[C@H](O)[C@H](O)CO)CC2)C[C@@H]1OC` [Example 8, 4-amino-5-chloro-2-methoxy-N-((3S,4R)-3-methoxy-1-(6-oxo-6-((1-(8-oxo-8-(((2S,3R,4R,5R)-2,3,4,5,6-pentahydroxyhexyl)amino)octyl)piperidin-4-yl)amino)hexyl)piperidin-4-yl)benzamide]: it took 9.6 nM to reach a half-maximal effect (EC50).

Compound `Nc1c(Cl)cc(C(=O)NCC2CCN(CC3CCN(C(=O)CCCCCCC(=O)NC[C@H](O)[C@@H](O)[C@H](O)[C@H](O)CO)CC3)CC2)c2c1CCO2` [Example 40, 4-amino-5-chloro-N-((1-((1-(8-oxo-8-(((2S,3R,4R,5R)-2,3,4,5,6-pentahydroxyhexyl)amino)octanoyl)piperidin-4-yl)methyl)piperidin-4-yl)methyl)-2,3-dihydrobenzofuran-7-carboxamide] gave an EC50 of 2 nM. The same measure for `COc1cc(N)c(Cl)cc1C(=O)N[C@@H]1CCN(CCOCCC(=O)NCCCCCCCC(=O)NC[C@H](O)[C@@H](O)[C@H](O)[C@H](O)CO)C[C@@H]1OC` [Example 17, 4-amino-5-chloro-2-methoxy-N-((3S,4R)-3-methoxy-1-(2-(3-oxo ((8-oxo-8-(((2S,3R,4R,5R)-2,3,4,5,6-pentahydroxyhexyl)amino)octyl)amino)propoxy)ethyl)piperidin-4-yl)benzamide]: 202 nM; for `CO[C@H]1CN(CC2CCN(C(=O)CCCCCCCC(=O)NC[C@H](O)[C@@H](O)[C@H](O)[C@H](O)CO)CC2)CC[C@H]1NC(=O)c1cc(Cl)c(N)c2c1OCC2` [Example 41, 4-amino-5-chloro-N-((3S,4R)-3-methoxy-1-((1-(9-oxo-9-(((2S,3R,4R,5R)-2,3,4,5,6-pentahydroxyhexyl)amino)nonanoyl)piperidin-4-yl)methyl)piperidin-4-yl)-2,3-dihydrobenzofuran-7-carboxamide]: 1.2 nM.
